Data: patent publication US20060292553A1, “Method for study of the genetic and functional variability of HIV and kit for using it” (Bioalliance Pharma, a corporation of France, priority 2004, published 2006)

Key:
[1] = tested on: HIV-1 virus of the patient (recombinant virus); test: Phenoscript phenotyping, recombinant virus of the patient in the presence of drugs; type: cell-based
Excerpt: The principle of the phenotypical tests for resistance is based on the measurement in vitro of the growth of a virus in the patient in the presence of drugs.
Viral RNA derived from the plasma is extracted, then the regions coding for inverse transcriptase and/or protease are amplified using PCR in phenotypical tests. Amplicons are recombined in vitro in a defective vector to form a viral particle. This viral particle is placed in a culture in the presence of increasing concentrations of drugs. The results are expressed in a “fold change” ratio of IC 50 (or IC90) with respect to a control virus which corresponds to the concentration of the drug that inhibits 50% (or 90%) of the viral replication in comparison to the reference wild type virus. The resistance level is defined as a function of thresholds of sensitivity (cut off).
(§1) Tables 2 and 3 below show two examples of samples of plasma in patients 1 and 2, respectively, for which the amplicons generated by the method above have made it possible to implement the genotyping according to the Trugene and Viroseq techniques and phenotyping according to the Phenoscript technique.
The principle of the tests of phenotypical resistance is based on the measurement in vitro of the growth of a virus in the patient in the presence of drug(s)/active agent(s), compared to a reference virus (resistance index). The level of resistance is defined as a function of thresholds of sensitivity (cut off). A second score of 0 to 2 is attributed to each of the three levels of resistance determined by the interpretation. Table 12 summarizes the interpretations given by the main phenotypical tests, PhenoSense and Phenoscript, as a function of their thresholds of sensitivity and assigns a phenotypical score corresponding to the magnitude of resistance.

[2] = tested on: HIV-1 virus of the patient (protease and inverse transcriptase genes); test: Trugene genotyping, interpretation of resistances from the amplicon of patient plasma; conditions: M184V, T215Y, L63P
Excerpt: (§2) The procedure to generate the first specific amplicon is as follows: • 1) Viral RNA contained in a biological sample is extracted. The biological sample may be derived from a sample from the patient. It may be a blood or serum sample, but may also come from a biological fluid or a biopsy or any other tissue preparation. The biological sample may also come from a viral culture. In a general manner, a biological sample corresponds to all types of samples containing one or several HIV-1 variants. The term “HIV-1 virus” in this Example is used to mean any viral strain belonging to the sub-types B and non-B. • 2) The RNA obtained in (1) is retrotranscribed and amplified with one of the pairs of specific primers in Table 1 below to obtain an amplicon characterized by: […]
as §1
The Trugene HIV-1 genotyping kit is used to determine the genotype of the virus of sub-types B and non-B. The RNA is extracted using plasma from patients, according to known techniques, the viral RNA is retrotranscribed and amplified using PCR with primers specific for the pol gene making possible amplification of a sequence of nucleic acids of 1300 pb comprising, for the protease, codons 1 to 99 and comprising, for the inverse transcriptase, codons 1 to 247. The product of RT-PCR thus obtained is used in each of the 16 sequencing reactions by using the principle of CLIP™ reaction, sequencing technique using labeled primers (dye primers). Four pairs of different primers are used for this sequencing method, two pairs for the sequencing of the protease and two other pairs for the sequencing of the inverse transcriptase. Each sequence reaction is initiated by a specific dye primer (CLIP™), then interrupted by the corresponding labeled nucleotide. All of the fragments synthesized are then separated on electrophoresis gel and analyzed by an automatic sequencer specifically indicating the fragments ending with each of the four labeled nucleotides. The sequences, once reconstituted, are compared to the sequence of a reference virus using an alignment software.
(§3) The measurement of genetic variability is carried out using a specific sequence of nucleic acids amplified according to aspects of the method, then analyzed according to known sequencing techniques (Trugene, ViroSeq). Mutations in the genes of the protease and of the inverse transcriptase identified by these tests are interpreted according to algorithms that are updated regularly. A first score of 0 to 2 is attributed to each of the three levels of resistance determined by the interpretation. Table 11 below summarizes the interpretations given by the Trugene and ViroSeq tests as a function of the mutations identified and of the anti-retroviruses (ARV) used and assigns a genotypical score corresponding to the magnitude of the resistance.

[3] = tested on: HIV-1 virus of the patient (protease and inverse transcriptase genes); test: ViroSeq genotyping, evidence of resistance from the amplicon of patient plasma; conditions: M184V, T215Y, L63P
Excerpt: as §2, §1
The RNA is extracted using plasmas from patients according to a known extraction technique based on the affinity of RNA with respect to silica columns, the viral RNA is retrotranscribed and amplified using PCR with primers specific to the pol gene making possible amplification of a sequence of nucleic acids of 1800 pb comprising, for the protease, codons 1 to 99 and comprising, for the inverse transcriptase, codons 1 to 335. The DNA thus obtained is then sequenced with seven different primers according to the Big Dye™ Terminator technology, a sequencing technique using dye terminators. The sequence reaction is initiated by each specific non-labeled primer, then interrupted by each of the labeled nucleotides. All of the fragments synthesized are then separated on electrophoresis gel. The color of the fluorochrome will then be registered using an automatic sequencer (ABI Prism 377 DNA sequencer), specifically indicating the fragments ending with each of the four labeled nucleotides. The sequences, once reconstituted, are compared to the sequence of a reference virus using an alignment software.
as §3

[4] = Patient 1 plasma sample, mutations D67N, K70R, K219E, K103N, V108I, P225H
[5] = Patient 2 plasma sample, mutations M41L, L210W, M36L

SMILES | Phenoscript Contribution to the therapeutic response ([1]; Patient 1 plasma sample) | Phenoscript Contribution to the therapeutic response ([1]; Patient 2 plasma sample) | Trugene Interpretation of resistances [2, 4] | Trugene Interpretation of resistances [2, 5] | Viroseq Evidence of resistance [3, 4] | Viroseq Evidence of resistance [3, 5]
CC(C)CN(C[C@@H](O)[C@H](Cc1ccccc1)NC(=O)O[C@H]1CCOC1)S(=O)(=O)c1ccc(N)cc1 [APV] | Probable | Probable | No resistance | No resistance | Zero | Zero
Cc1cn([C@H]2C[C@H](N=[N+]=[N-])[C@@H](CO)O2)c(=O)[nH]c1=O [AZT] | Improbable | Improbable | Resistance | Resistance | High | High
O=c1[nH]cnc2c1ncn2[C@H]1CC[C@@H](CO)O1 [ddI] | Probable | Possible | Resistance | Resistance | Possible | Possible
CC(C)(C)NC(=O)[C@@H]1C[C@@H]2CCCC[C@@H]2CN1C[C@@H](O)[C@H](Cc1ccccc1)NC(=O)[C@H](CC(N)=O)NC(=O)c1ccc2ccccc2n1 [SQV] | Probable | Probable | No resistance | No resistance | Zero | Zero
Nc1ccn([C@@H]2CS[C@H](CO)O2)c(=O)n1 [3TC] | Improbable | Improbable | Resistance | Resistance | High | High
CC(C)Nc1cccnc1N1CCN(C(=O)c2cc3cc(NS(C)(=O)=O)ccc3[nH]2)CC1 [DLV] | – | – | Resistance | No resistance | High | Zero
Nc1nc(NC2CC2)c2ncn([C@H]3C=C[C@@H](CO)C3)c2n1 [ABC] | Possible | Possible | No resistance | Resistance | Possible | Possible
Cc1c(O)cccc1C(=O)N[C@@H](CSc1ccccc1)[C@H](O)CN1C[C@H]2CCCC[C@H]2C[C@H]1C(=O)NC(C)(C)C [NFV] | Probable | Probable | No resistance | No resistance | Zero | Possible
CC(C)(C)NC(=O)[C@@H]1CN(Cc2cccnc2)CCN1C[C@@H](O)C[C@@H](Cc1ccccc1)C(=O)N[C@H]1c2ccccc2C[C@H]1O [IDV] | Probable | Probable | No resistance | No resistance | Zero | Zero
CC(C)OC(=O)OCOP(=O)(CO[C@H](C)Cn1cnc2c(N)ncnc21)OCOC(=O)OC(C)C.O=C(O)/C=C/C(=O)O [TDF] | – | – | No resistance | Resistance | – | –
O=C1Nc2ccc(Cl)cc2[C@@](C#CC2CC2)(C(F)(F)F)O1 [EFV] | Improbable | Probable | Resistance | No resistance | High | Zero
CC(C)c1nc(CN(C)C(=O)N[C@H](C(=O)N[C@@H](Cc2ccccc2)C[C@H](O)[C@H](Cc2ccccc2)NC(=O)OCc2cncs2)C(C)C)cs1 [RTV] | – | – | No resistance | No resistance | Zero | Zero
Nc1ccn([C@H]2CC[C@@H](CO)O2)c(=O)n1 [ddC] | – | – | – | – | High | High
Cc1cccc(C)c1OCC(=O)N[C@@H](Cc1ccccc1)[C@@H](O)C[C@H](Cc1ccccc1)NC(=O)[C@H](C(C)C)N1CCCNC1=O [LPV] | Probable | Probable | No resistance | No resistance | Zero | Zero
Cc1ccnc2c1NC(=O)c1cccnc1N2C1CC1 [NVP] | Improbable | Probable | Resistance | No resistance | High | Zero
Cc1cn([C@H]2C=C[C@@H](CO)O2)c(=O)[nH]c1=O [d4T] | Probable | Probable | Resistance | Resistance | High | Possible
